The record followed here is ChEMBL document CHEMBL1128246, “Synthesis and structure-activity relationships of oxamic acid and acetic acid derivatives related to L-thyronine” (J Med Chem, 1995).

Some results are limits rather than exact numbers.

For assay [1], the system named is Rattus norvegicus. Briefly: Percent change in serum LDL level was determined in hypercholesterolemic rats at 10 ug/Kg upon peroral administration. The format is functional.
The test system of assay [2] is Rattus norvegicus. Briefly: Effective dose was determined in hypercholesterolemic rats for lowering total serum cholesterol compared to control upon peroral administration. The format is functional. The following applies: po.
The subject of assay [3] is Rattus norvegicus. In words: Minimum effective dose was determined in hypercholesterolemic rats for lowering total cholesterol level compared to control upon peroral administration. The format is functional. Conditions: po, read-out: MED.
For assay [4], the system named is Rattus norvegicus. Briefly: Dose which was not showing any cardiac effect in normal cholesterol rats upon peroral administration. The format is functional.
For assay [5], the system named is Rattus norvegicus. Briefly: Percent change in serum HDL level was determined in hypercholesterolemic rats at 10 ug/Kg upon peroral administration. The format is functional.
Assay [6] addresses T1, Thyroid hormone receptor beta (Rattus norvegicus, UniProt P18113).
T1 sequence (P18113 whole entry): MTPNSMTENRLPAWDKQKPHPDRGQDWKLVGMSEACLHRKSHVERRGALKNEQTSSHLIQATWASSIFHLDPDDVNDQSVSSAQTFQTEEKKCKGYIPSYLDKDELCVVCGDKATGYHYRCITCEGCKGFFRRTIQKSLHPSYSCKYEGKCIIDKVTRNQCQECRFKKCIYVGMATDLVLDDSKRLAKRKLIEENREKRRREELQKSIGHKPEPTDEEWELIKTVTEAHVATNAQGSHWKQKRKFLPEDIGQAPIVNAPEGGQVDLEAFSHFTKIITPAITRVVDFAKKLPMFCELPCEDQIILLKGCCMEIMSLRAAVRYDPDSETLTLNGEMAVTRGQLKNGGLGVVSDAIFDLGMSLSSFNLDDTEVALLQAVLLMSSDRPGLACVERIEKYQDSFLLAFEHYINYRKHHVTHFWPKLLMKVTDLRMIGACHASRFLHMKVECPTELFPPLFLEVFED
In words: Ability to inhibit the bound [125I]L-T3 rat liver Nuclear L-triiodothyronine receptor is determined in vitro.

Assay [7] deals with Rattus norvegicus. In words: Percent change in serum HDL level was determined in hypercholesterolemic rats at 100 ug/Kg upon peroral administration. The format is functional.
For assay [8], the system named is Rattus norvegicus. Briefly: Percent change in serum LDL level was determined in hypercholesterolemic rats at 100 ug/Kg upon peroral administration. It counts as functional.
In assay [9] the test system is Rattus norvegicus. Briefly: Percent change in serum LDL level was determined in hypercholesterolemic rats at 25 ug/Kg upon peroral administration. The format is functional.
Assay [10] concerns Rattus norvegicus. In words: Percent change in serum HDL level was determined in hypercholesterolemic rats at 25 ug/Kg upon peroral administration. It counts as functional.

Take `CCOC(=O)C(=O)Nc1cc(C)c(Oc2ccc(O)c(C(O)c3ccc(F)cc3)c2)c(C)c1` (stereo in doubt; 23a) [AXITIROME]: the Change in the assay on Rattus norvegicus [1] is recorded as -73%; with Rattus norvegicus [5] it was 0%. The ED50 (in general, the dose at which the effect has come halfway, by size or by number of responders) with Rattus norvegicus [2] came out at 0.005 mg/kg. The minimal effective dose in the assay on Rattus norvegicus [3] was less than 0.001 mg/kg. The compound also gave a Dose with Rattus norvegicus [4] of more than 25 mg/kg. Take `CC(C)c1cc(Oc2c(Cl)cc(NCC(=O)O)cc2Cl)ccc1O`: the IC50 (commonly the midpoint of a concentration-inhibition curve) in assay [6] amounted to 1.1 nM.

The compound `CC(C)c1cc(Oc2c(Br)cc(CCC(=O)O)cc2Br)ccc1O` registered an IC50 in [6] of 0.11 nM.

Turning to `Cc1cc(NC(Cc2ccccc2)C(=O)O)cc(C)c1Oc1ccc(O)c(C(C)C)c1` (stereo unspecified), the IC50 in assay [6] is 400 nM. Still for that read-out and setting: the figure for `CC(C)c1cc(Oc2c(I)cc(NCC(=O)O)cc2I)ccc1O` is 0.31 nM. The compound `CC(Nc1cc(Cl)c(Oc2ccc(O)c(C(C)C)c2)c(Cl)c1)C(=O)O` (stereo unspecified) came in with an IC50 in [6] of 48 nM.

In the case of `Cc1cc(NCC(=O)O)cc(C)c1Oc1ccc(O)c(C(C)C)c1`, the IC50 in assay [6] was 12 nM. Still for that read-out and setting: as for `Cc1cc(CCC(=O)O)cc(C)c1Oc1ccc(O)c(C(C)C)c1`, the figure is more than 5000 nM.

Take `CCOC(=O)C(=O)Nc1cc(C)c(Oc2ccc(OC)c(C(O)c3ccc(F)cc3)c2)c(C)c1` (stereo unspecified): in assay [6], half-maximal inhibition (IC50) required 34 nM. On the same count and under the same terms, the figure for `CC(C)c1cc(Oc2c(Br)cc(OCC(=O)O)cc2Br)ccc1O` is 0.1 nM. Turning to `CC(C)c1cc(Oc2c(Br)cc(SCC(=O)O)cc2Br)ccc1O`, inhibition in assay [6] was half-maximal at 1.5 nM (IC50). Still for that read-out and setting: the figure for `Cc1cc(NC(C)C(=O)O)cc(C)c1Oc1ccc(O)c(C(C)C)c1` (stereo unspecified) is 550 nM. For the compound `CC(C)c1cc(Oc2c(Cl)cc(NC(=O)C(=O)O)cc2Cl)ccc1O`, the ED50 in the assay with Rattus norvegicus [2] is 0.05 mg/kg. For the same compound, the minimal effective dose in the assay on Rattus norvegicus [3] is 0.0125 mg/kg. In the assay with Rattus norvegicus [4], this compound yielded a Dose of 10 mg/kg.

Turning to `N[C@@H](Cc1cc(I)c(Oc2ccc(O)c(I)c2)c(I)c1)C(=O)O` [LIOTHYRONINE], the values for the Change in the assay with Rattus norvegicus [7] and in the assay on Rattus norvegicus [8] were -8% and -65%, respectively. The compound further showed an ED50 with Rattus norvegicus [2] of 0.1 mg/kg. The minimal effective dose in the assay with Rattus norvegicus [3] amounted to 0.025 mg/kg. This compound also registered a Dose in the assay on Rattus norvegicus [4] of less than 0.025 mg/kg. In turn, `Cc1cc(NC(=O)C(=O)O)cc(C)c1Oc1ccc(O)c(C(C)C)c1` came in with an ED50 in the assay with Rattus norvegicus [2] of 0.02 mg/kg. In addition, the figures for the Change with Rattus norvegicus [9] and in the assay with Rattus norvegicus [10] were -67% and -5%, respectively. In the assay with Rattus norvegicus [3], the minimal effective dose was determined as 0.01 mg/kg. This compound also showed a Dose in the assay on Rattus norvegicus [4] of 10 mg/kg. `CC(C)c1cc(Oc2c(Cl)cc(NC(Cc3ccccc3)C(=O)O)cc2Cl)ccc1O` (stereo unspecified) registered an IC50 in [6] of 58 nM. Same read-out and setting: as for `Cc1cc(SCC(=O)O)cc(C)c1Oc1ccc(O)c(C(C)C)c1`, the figure is 3.5 nM.
